The text below walks through data of patent US8343943B2, “Cancer sensitizer comprising glucosamine, glucosamine derivatives or salts thereof” (National Cancer Center, priority 2006, dated 2013).

The structures appear in SMILES notation.

The test system of experiment [1] is I-κBα in MDA231 cells. Description: Western blotting against I-κBα, cytoplasm fractions. In kind it is cell-based, human. The note with it: MDA-231; cultured 1 hr; cytoplasm fraction. On the procedure:
(§1) Glucosamine was analyzed for its effect on I-κBα degradation. For this, MCF7/DOX and MDA231 cells were cultured for 1 hr and cytoplasm fractions thereof were harvested for Western blotting against I-κBα. Western blotting results are shown in the upper panel of FIG. 3B. Western blotting was quantified using a densitometer, and the results are depicted in the lower panel of FIG. 3B. For each value, the mean of three independent experiments and standard deviations are given.
A general note: A western blot detects proteins with antibodies after separation by electrophoresis.

Experiment [2] has as its system I-κBα in MCF7/DOX cells. Described as above. The note with it: MCF-7/DOX; cultured 1 hr; cytoplasm fraction. In kind it is cell-based, human. As for the experimental part:
as §1

Experiment [3] concerns NF-κB activity in MDA231 cells. The experiment can be described thus: pNF-κB-SEAP reporter assay. Type of experiment: cell-based, human. Conditions: MDA-231; glucosamine 5 mM; 24 hrs. As for the experimental part: (§2) MCF7/DOX and MDA231 cell lines were cultured in media supplemented with 10% fetal bovine serum (Gibco BRL), 1 mM sodium pyruvate (Gibco BRL) and 100 U/ml penicillin-streptomycin (Gibco BRL) at 37° C. in a humid 5% CO2 atmosphere. A pNF-κB-SEAP vector was transfected into the cells. 24 hrs after transfection, the cells were cultured in the presence of or absence of glucosamine (represented by GM, 5 mM) for 24 hrs. The cell culture was subjected to an SEAP assay, and the cells, after being harvested, were subjected to a β-galactosidase assay. The values obtained for the SEAP assay were corrected for transfection efficiency with a pGAL plasmid (1 μg). β-Galactosidase activity was measured to correct the SEAP activity. The SEAP assay was conducted according to the procedure set forth by the manufacturer (BD Biosciences Clontech, Co.). […] These experiments were done in triplicate and repeated at least three times. The values of each experiment are the mean of three independent experiments and the standard deviations.

Experiment [4] relates to NF-κB activity in MCF7/DOX cells. Description: pNF-κB-SEAP reporter assay. Type of experiment: cell-based, human. The note with it: MCF-7/DOX; glucosamine 5 mM; 24 hrs. On the procedure: as §2
(In general: Reporter assays use an easily measured gene product as a stand-in for the process of interest.)

Experiment [5] deals with MCF 7/DOX cells (doxorubicin resistant). The experiment can be described thus: MTT cytotoxicity assay, doxorubicin with or without glucosamine. In kind it is cell-based, human. As for the experimental part: (§3) Human breast cancer cell line MDA-231 (doxorubicin resistant) was purchased from ATCC. MCF-7/DOX (doxorubicin resistant) was obtained from Dr. Kenneth H. Cowan (University of Nebraska Medical Center, 986805 Nebraska Medical Center, Omaha, Nebr. 68198-6805, USA). These cell lines were maintained in media supplemented with 10% fetal bovine serum (Gibco BRL), 1 mM sodium pyruvate (Gibco BRL), and 100 U/ml penicillin-streptomycin (Gibco BRL) at 37° C. in a humid 5% CO2 atmosphere and subcultured every two or three days.
(§4) An MTT assay was conducted through […] analysis on the reduction of yellow tetrazolium salt into purple formazan in the mitochondria of viable cells. Cells were seeded at a population of 1×10^5 cells/well in 24-well plates. After incubation for 24 hrs, the cells were exposed to doxorubicin. This anticancer agent was administered at a dose of 90 μM to MCF 7/DOX and 5 μM to MDA 231. A control was not treated with doxorubicin. On the very day of analysis, the culture medium in each well was substituted with a fresh medium containing MTT (3-(4,5-dimethylthiazol-2-yl)-2,5-diphenyltetrazolium) (Sigma) at a concentration of 0.5 mg per ml, followed by incubation therein for an additional 4 hrs. After the removal of the medium, 500 μl of DMSO was added to each well and the formazan crystals were dissolved using an orbital shaker. Cell viability was represented as a percentage of a test group to the control. These experiments were done in triplicate and repeated at least three times. For each experiment, the mean of three independent experiments and the standard deviations are given.
(§5) MTT assay was conducted to examine whether glucosamine increases the sensitivity of breast cancer cells to anticancer agents. MCF 7/DOX and MDA 231 cell lines, both resistant to anticancer agents, were treated with doxorubicin and glucosamine (1.0 to 10 mM) for 24 hrs. Controls were not treated with glucosamine, while doxorubicin was administered at concentrations of 5 μM to MDA-MB 231, and at a concentration of 90 μM to MCF-7/DOX.
In general terms: Tetrazolium dyes change colour on reduction, which living cells bring about.

Experiment [6] relates to MDA 231 cells (doxorubicin resistant). The experiment is described as above. In kind it is cell-based, human. On the procedure: as §3, §4, §5
Experiment [7] has as its system MCF 7 cells. Description: MTT cytotoxicity assay, anticancer agent-sensitive line. Type of experiment: cell-based. The note with it: MCF 7, sensitive to anticancer agent. As for the experimental part:
as §4
(§6) As measured through an MTT assay, almost all MCF 7 and MDA 468, both sensitive to anticancer agent, died, whereas apoptosis took place in about 50% of the anticancer agent-resistant cell lines.

The subject of experiment [8] is MDA 468 cells. The experiment is described as above. Type of experiment: cell-based. Conditions: MDA 468, sensitive to anticancer agent. On the procedure:
as §4, §6

Regarding `N[C@H]1C(O)O[C@H](CO)[C@@H](O)[C@@H]1O` (stereo partly drawn) [glucosamine], the I-κBα level result in experiment [1] and in experiment [2] was “increase” throughout. Moreover, the NF-κB activity entry in experiment [3] and in experiment [4] was “decrease” in each case. In addition, the “sensitivity to doxorubicin when treated with glucosamine vs not treated” value in experiment [5] (MCF 7/DOX, doxorubicin 90 μM, glucosamine 1.0 to 10 mM, 24 hrs) was “twice as (two times more=three times as) sensitive”; in experiment [6] (MDA 231, doxorubicin 5 μM, glucosamine 1.0 to 10 mM, 24 hrs), “twice as (two times more=three times as) sensitive”. For the same compound, the “apoptosis frequency, anticancer agent in combination with glucosamine vs alone” value was “twice as frequently” in experiment [5] (chemoresistant cells, FIG. 1 (MCF/DOX)) and “twice as frequently” in experiment [6] (chemoresistant cells, FIG. 2 (MDA231)).
As to `COc1cccc2c1C(=O)c1c(O)c3c(c(O)c1C2=O)C[C@@](O)(C(=O)CO)C[C@@H]3O[C@H]1C[C@H](N)[C@H](O)[C@H](C)O1` [doxorubicin, reference compound], the apoptosis of cells entry is recorded as “about 50%” in experiment [5] (MCF 7/DOX, doxorubicin 90 μM alone) and “about 50%” in experiment [6] (MDA 231, doxorubicin 5 μM alone). Besides, the cell death result in experiment [7] and in experiment [8] was “almost all” each time.
